± gives the expanded uncertainty stated by the source.

A short description of data set [1]: Molar enthalpy of transition or fusion. The conditions noted are these: Crystal; DSC.
The conditions of data set [2]: Crystal; DTA.

As to `C[C@H]([C@@H](O)c1ccccc1)N(C)C` [(+)-N-methylephedrine], in data set [1], the “Molar enthalpy of transition or fusion” value was determined as 7.3 ± 0.208 kcal/mol. Also, in data set [2], the Normal melting temperature came to 86.60 ± 2 °C.

(Values after the NIST ThermoML archive (doi:10.1021/je020176b).)
